The test concerns the target T1, AKT1 (Homo sapiens, UniProt P31749).
T1 construct: purchased Upstate 14-276
Nature of the test: HTS ATP-utilizing enzyme assay, off-chip mobility-shift (Caliper HTS 250). The test is classed as biochemical. Conditions: kinase named = inhibitory activity/selectivity; test compound 10 μM; active = greater than three-sigma from mean. The text has this: The following procedures describe the reagent and plate preparation for a HTS of an ATP-utilizing enzyme, such as a protein kinase, run in an off-chip mobility-shift assay format. The following provides an HTS protocol for running a protein kinase HTS screen on a Caliper HTS 250 microfluidics system. The following parameters are dependent on the protein kinase used and can be determined by one skilled in the art as part of a typical assay development process. For example, the peptide substrate used can be identified from the current literature, by screening a peptide library of potential protein kinase substrates, or by other applicable means accepted in the field.
The following table provides typical screen assay parameters appropriate for a Caliper HTS 250 microfluidics system used to assay AKT1. Parameters used to assay other protein kinases can be determined by one skilled in the art.
Assays to determine the kinase inhibitory activity of chemical entities of the present disclosure were performed using a Caliper HTS 250 microfluidics device, Greiner U-bottom assay plates, a Multidrop for transfer of reagents, and Biomek FX (AMNCBM03) software. Initially, 2.4 μL of a 1 mM solution of a test compound in 100% DMSO was added to a well of the Greiner U-bottom plate. A single Greiner U-bottom plate having 24×16 wells could include multiple test compounds. […] Using the Biomek FX, 10 μL of 0.5 M EDTA was added by the span-8 to wells, indicated as 100% Control and 2.4 μL of 100% DMSO was added by the span-8 to wells, indicated as 0% Control. […] The total reaction volume in each well was 25 μL, and the concentration of the test compound was 10 μM. The assay plate was incubated for 2.5 hrs at 20° C. to 22° C. […] The inhibition of the ATP-utilizing enzyme, such as a particular protein kinase, was determined by measuring the ratio of the peptide substrate to phosphorylated product for each well of the assay plate using the Caliper HTS 250 system.
The use of three-sigma statistical limits represents a conservative method for declaring potential hits among targets. The three-sigma activity, as well as the mean population activity, can be different for each target enzyme.
Each chemical entity listed in Table 2 was tested for protein kinase inhibitory activity according to the biological assays and definitions of protein kinase inhibitory activity as described herein.
T1 sequence (P31749 whole entry): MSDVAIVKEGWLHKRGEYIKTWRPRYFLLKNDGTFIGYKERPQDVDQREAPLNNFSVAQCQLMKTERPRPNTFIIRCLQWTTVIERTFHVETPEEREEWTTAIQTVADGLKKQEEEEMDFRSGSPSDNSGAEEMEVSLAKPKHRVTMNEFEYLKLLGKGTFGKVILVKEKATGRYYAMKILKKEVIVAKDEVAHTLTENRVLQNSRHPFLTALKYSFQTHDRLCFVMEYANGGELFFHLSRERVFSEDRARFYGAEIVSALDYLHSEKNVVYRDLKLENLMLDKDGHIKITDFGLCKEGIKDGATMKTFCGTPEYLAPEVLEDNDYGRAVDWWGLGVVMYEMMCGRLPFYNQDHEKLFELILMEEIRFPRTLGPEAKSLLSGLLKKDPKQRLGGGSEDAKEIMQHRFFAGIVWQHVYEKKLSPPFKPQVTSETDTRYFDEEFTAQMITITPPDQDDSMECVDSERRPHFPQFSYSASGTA
As to `O=C(NCCO)C1CCCN(C(=O)CCN(C(=O)c2cccs2)c2nc(-c3cc4ccccc4o3)cs2)C1` (stereo not shown) [1-(3-(N-(4-(benzofuran-2-yl)thiazol-2-yl)thiophene-2-carboxamido)propanoyl)-N-(2-hydroxyethyl)piperidine-3-carboxamide], the Activity result is given as “AKT1”.
To `NC(=O)C1CCCCN1C(=O)CCN(C(=O)c1cccs1)c1nc(-c2cc3ccccc3o2)cs1` (stereo not shown) [1-(3-(N-(4-(benzofuran-2-yl)thiazol-2-yl)thiophene-2-carboxamido)propanoyl)piperidine-2-carboxamide] belongs “AKT1”.
To `NC(=O)C1CCCN(C(=O)CCN(C(=O)c2cccs2)c2nc(-c3cc4ccccc4o3)cs2)C1` (stereo not shown) [1-(3-(N-(4-(benzofuran-2-yl)thiazol-2-yl)thiophene-2-carboxamido)propanoyl)piperidine-3-carboxamide] belongs “AKT1”; to `O=C(O)C1CCCN(C(=O)CCN(C(=O)c2cccs2)c2nc(-c3cc4ccccc4o3)cs2)C1` (stereo not shown) [1-(3-(N-(4-(benzofuran-2-yl)thiazol-2-yl)thiophene-2-carboxamido)propanoyl)piperidine-3-carboxylic acid], “AKT1”; to `NC(=O)C1CCCN1C(=O)CCN(C(=O)c1cccs1)c1nc(-c2cc3ccccc3o2)cs1` (stereo not shown) [1-(3-(N-(4-(benzofuran-2-yl)thiazol-2-yl)thiophene-2-carboxamido)propanoyl)pyrrolidine-2-carboxamide], “AKT1”.
To `CCN(CC)C(=O)C1CCCN(CCCN(C(=O)c2cccs2)c2nc(-c3cc4ccccc4o3)cs2)C1` (stereo not shown) [1-(3-(N-(4-(benzofuran-2-yl)thiazol-2-yl)thiophene-2-carboxamido)propyl)-N,N-diethylpiperidine-3-carboxamide] belongs “AKT1”.
Turning to `CNC(=O)C1CCN(CCCN(C(=O)c2cccs2)c2nc(-c3cc4ccccc4o3)cs2)CC1` [1-(3-(N-(4-(benzofuran-2-yl)thiazol-2-yl)thiophene-2-carboxamido)propyl)-N-methylpiperidine-4-carboxamide], the Activity entry is on record as “AKT1”.
To `NC(=O)C1CCCCN1CCCN(C(=O)c1cccs1)c1nc(-c2cc3ccccc3o2)cs1` (stereo not shown) [1-(3-(N-(4-(benzofuran-2-yl)thiazol-2-yl)thiophene-2-carboxamido)propyl)piperidine-2-carboxamide] belongs “AKT1”; to `NC(=O)C1CCCN(CCCN(C(=O)c2cccs2)c2nc(-c3cc4ccccc4o3)cs2)C1` (stereo not shown) [1-(3-(N-(4-(benzofuran-2-yl)thiazol-2-yl)thiophene-2-carboxamido)propyl)piperidine-3-carboxamide], “AKT1”; to `NC(=O)C1CCN(CCCN(C(=O)c2cccs2)c2nc(-c3cc4ccccc4o3)cs2)CC1` [1-(3-(N-(4-(benzofuran-2-yl)thiazol-2-yl)thiophene-2-carboxamido)propyl)piperidine-4-carboxamide], “AKT1”.
The entry for `NC(=O)C1CCCN1CCCN(C(=O)c1cccs1)c1nc(-c2cc3ccccc3o2)cs1` (stereo not shown) [1-(3-(N-(4-(benzofuran-2-yl)thiazol-2-yl)thiophene-2-carboxamido)propyl)pyrrolidine-2-carboxamide] is “AKT1”; for `O=C(NCCO)C1CCN(C(=O)CCCN(C(=O)c2cccs2)c2nc(-c3cc4ccccc4o3)cs2)CC1` [1-(4-(N-(4-(benzofuran-2-yl)thiazol-2-yl)thiophene-2-carboxamido)butanoyl)-N-(2-hydroxyethyl)piperidine-4-carboxamide] it is “AKT1”.
The entry for `CNC(=O)C1CCN(C(=O)CCCN(C(=O)c2cccs2)c2nc(-c3cc4ccccc4o3)cs2)CC1` [1-(4-(N-(4-(benzofuran-2-yl)thiazol-2-yl)thiophene-2-carboxamido)butanoyl)-N-methylpiperidine-4-carboxamide] is “AKT1”; for `NC(=O)C1CCCN(C(=O)CCCN(C(=O)c2cccs2)c2nc(-c3cc4ccccc4o3)cs2)C1` (stereo not shown) [1-(4-(N-(4-(benzofuran-2-yl)thiazol-2-yl)thiophene-2-carboxamido)butanoyl)piperidine-3-carboxamide] it is “AKT1”.
With `NC(=O)C1CCN(C(=O)CCCN(C(=O)c2cccs2)c2nc(-c3cc4ccccc4o3)cs2)CC1` [1-(4-(N-(4-(benzofuran-2-yl)thiazol-2-yl)thiophene-2-carboxamido)butanoyl)piperidine-4-carboxamide], the Activity entry was “AKT1”.
Regarding `NC(=O)C1CCCN1C(=O)CCCN(C(=O)c1cccs1)c1nc(-c2cc3ccccc3o2)cs1` (stereo not shown) [1-(4-(N-(4-(benzofuran-2-yl)thiazol-2-yl)thiophene-2-carboxamido)butanoyl)pyrrolidine-2-carboxamide], the Activity entry is on record as “AKT1”.
The entry for `CC(=O)N1CCC(C(=O)NCCCN(C(=O)c2cccs2)c2nc(-c3cc4ccccc4o3)cs2)CC1` [1-acetyl-N-(3-(N-(4-(benzofuran-2-yl)thiazol-2-yl)thiophene-2-carboxamido)propyl)piperidine-4-carboxamide] is “AKT1”; for `Cn1cccc1C(=O)N(CCCN1CCCC1=O)c1nc(-c2cc(-c3ccccc3)no2)cs1` [1-methyl-N-(3-(2-oxopyrrolidin-1-yl)propyl)-N-(4-(3-phenylisoxazol-5-yl)thiazol-2-yl)-1H-pyrrole-2-carboxamide] it is “AKT1”; for `Cn1cccc1C(=O)N(CCCN1CCOCC1)c1nc(-c2cc(-c3ccccc3)no2)cs1` [1-methyl-N-(3-morpholinopropyl)-N-(4-(3-phenylisoxazol-5-yl)thiazol-2-yl)-1H-pyrrole-2-carboxamide] it is “AKT1”.
Take `O=C(O)COc1cccc(-c2csc(N(CCCN3CCOCC3)C(=O)c3cccs3)n2)c1` [2-(3-(2-(N-(3-morpholinopropyl)thiophene-2-carboxamido)thiazol-4-yl)phenoxy)acetic acid]: the Activity result was “AKT1”.
The entry for `O=C(O)CNC(=O)c1ccc(-c2csc(N(CCCN3CCOCC3)C(=O)c3cccs3)n2)cc1` [2-(4-(2-(N-(3-morpholinopropyl)thiophene-2-carboxamido)thiazol-4-yl)benzamido)acetic acid] is “AKT1”; for `O=C(O)COc1ccc(-c2csc(N(CCCN3CCOCC3)C(=O)c3cccs3)n2)cc1` [2-(4-(2-(N-(3-morpholinopropyl)thiophene-2-carboxamido)thiazol-4-yl)phenoxy)acetic acid] it is “AKT1”.
The entry for `O=C(O)Cc1ccc(-c2csc(N(CCCN3CCOCC3)C(=O)c3cccs3)n2)s1` [2-(5-(2-(N-(3-morpholinopropyl)thiophene-2-carboxamido)thiazol-4-yl)thiophen-2-yl)acetic acid] is “AKT1”.
With `O=C(Nc1nncs1)c1csc(N(CCCN2CCOCC2)C(=O)c2cccs2)n1` [2-(N-(3-morpholinopropyl)thiophene-2-carboxamido)-N-(1,3,4-thiadiazol-2-yl)thiazole-4-carboxamide], the Activity entry is recorded as “AKT1”.
With `O=C(Nc1nccs1)c1csc(N(CCCN2CCOCC2)C(=O)c2cccs2)n1` [2-(N-(3-morpholinopropyl)thiophene-2-carboxamido)-N-(thiazol-2-yl)thiazole-4-carboxamide], the Activity entry was “AKT1”.
To `COc1ccc(-c2csc(N(CCCN3CCOCC3)C(=O)c3ccccc3F)n2)cc1` [2-fluoro-N-(4-(4-methoxyphenyl)thiazol-2-yl)-N-(3-morpholinopropyl)benzamide] belongs “AKT1”.
Turning to `O=C(O)c1cccc(-c2csc(N(CCCN3CCOCC3)C(=O)c3cccs3)n2)c1` [3-(2-(N-(3-morpholinopropyl)thiophene-2-carboxamido)thiazol-4-yl)benzoic acid], the Activity result is listed as “AKT1”.
To `O=C(O)CCOc1cccc(-c2csc(N(CCCN3CCOCC3)C(=O)c3cccs3)n2)c1` [3-(3-(2-(N-(3-morpholinopropyl)thiophene-2-carboxamido)thiazol-4-yl)phenoxy)propanoic acid] belongs “AKT1”; to `O=C(O)CCOc1ccc(-c2csc(N(CCCN3CCOCC3)C(=O)c3cccs3)n2)cc1` [3-(4-(2-(N-(3-morpholinopropyl)thiophene-2-carboxamido)thiazol-4-yl)phenoxy)propanoic acid], “AKT1”.
The entry for `COc1ccc(-c2csc(N(CCCN3CCOCC3)C(=O)c3cccc(F)c3)n2)cc1` [3-fluoro-N-(4-(4-methoxyphenyl)thiazol-2-yl)-N-(3-morpholinopropyl)benzamide] is “AKT1”; for `Cc1cccc(C(=O)N(CCCN2CCOCC2)c2nc(-c3ccccc3)cs2)c1` [3-methyl-N-(3-morpholinopropyl)-N-(4-phenylthiazol-2-yl)benzamide] it is “AKT1”.

These data come from patent US7795290B2 (Genentech, Inc., priority 2004, dated 2010).
